What was measured:
[1] = molar heat capacity at constant pressure; conditions: 101.33 kPa, Liquid, Small sample (50 mg) DSC
[2] = Liquid; for thermal diffusivity: 101.33 kPa, Laser flash apparatus

COC(=O)CCC(C)=O [methyl levulinate]
Conditions | Critical pressure [kPa] | Critical temperature [K] | molar heat capacity at constant pressure [J/K/mol] | thermal diffusivity [m2/s]
[1], 302.68 K | – | – | 258.85 | –
[1], 303.18 K | – | – | 259.11 | –
[1], 303.68 K | – | – | 258.98 | –
[1], 304.18 K | – | – | 259.24 | –
[1], 304.68 K | – | – | 258.98 | –
[1], 305.18 K | – | – | 258.72 | –
[1], 305.68 K | – | – | 259.11 | –
[1], 306.18 K | – | – | 258.85 | –
[1], 306.68 K | – | – | 258.98 | –
[1], 307.18 K | – | – | 259.5 | –
[1], 307.68 K | – | – | 259.63 | –
[1], 308.18 K | – | – | 259.89 | –
[1], 308.68 K | – | – | 260.15 | –
[1], 309.18 K | – | – | 259.89 | –
[1], 309.68 K | – | – | 259.63 | –
[1], 310.18 K | – | – | 259.76 | –
[1], 310.68 K | – | – | 259.37 | –
[1], 311.18 K | – | – | 259.37 | –
[1], 311.68 K | – | – | 259.5 | –
[1], 312.18 K | – | – | 259.76 | –
[1], 312.68 K | – | – | 259.89 | –
[1], 313.18 K | – | – | 259.76 | –
[1], 313.68 K | – | – | 260.15 | –
[1], 314.18 K | – | – | 260.02 | –
[1], 314.68 K | – | – | 260.54 | –
[1], 315.18 K | – | – | 260.15 | –
[1], 315.68 K | – | – | 260.02 | –
[1], 316.18 K | – | – | 259.89 | –
[1], 316.68 K | – | – | 260.8 | –
[1], 317.18 K | – | – | 260.93 | –
[1], 317.68 K | – | – | 260.8 | –
[1], 318.18 K | – | – | 261.06 | –
[1], 318.68 K | – | – | 261.06 | –
[1], 319.18 K | – | – | 261.19 | –
[1], 319.68 K | – | – | 261.06 | –
[1], 320.18 K | – | – | 260.93 | –
[1], 320.68 K | – | – | 261.06 | –
[1], 321.18 K | – | – | 261.19 | –
[1], 321.68 K | – | – | 261.32 | –
[1], 322.18 K | – | – | 261.06 | –
[1], 322.68 K | – | – | 260.8 | –
[1], 323.18 K | – | – | 261.32 | –
[1], 323.68 K | – | – | 261.32 | –
[1], 324.18 K | – | – | 261.45 | –
[1], 324.68 K | – | – | 261.72 | –
[1], 325.18 K | – | – | 261.59 | –
[1], 325.68 K | – | – | 261.85 | –
[1], 326.18 K | – | – | 261.98 | –
[1], 326.68 K | – | – | 262.11 | –
[1], 327.18 K | – | – | 262.11 | –
[1], 327.68 K | – | – | 262.24 | –
[1], 328.18 K | – | – | 262.37 | –
[1], 328.68 K | – | – | 262.63 | –
[1], 329.18 K | – | – | 262.76 | –
[1], 329.68 K | – | – | 262.63 | –
[1], 330.18 K | – | – | 262.63 | –
[1], 330.68 K | – | – | 263.02 | –
[1], 331.18 K | – | – | 263.15 | –
[1], 331.68 K | – | – | 263.15 | –
[1], 332.18 K | – | – | 263.93 | –
[1], 332.68 K | – | – | 263.8 | –
[1], 333.18 K | – | – | 264.06 | –
[1], 333.68 K | – | – | 263.93 | –
[1], 334.18 K | – | – | 264.06 | –
[1], 334.68 K | – | – | 264.45 | –
[1], 335.18 K | – | – | 264.45 | –
[1], 335.68 K | – | – | 264.19 | –
[1], 336.18 K | – | – | 264.19 | –
[1], 336.68 K | – | – | 264.58 | –
[1], 337.18 K | – | – | 264.45 | –
[1], 337.68 K | – | – | 264.32 | –
[1], 338.18 K | – | – | 264.45 | –
[1], 338.68 K | – | – | 264.45 | –
[1], 339.18 K | – | – | 265.1 | –
[1], 339.68 K | – | – | 265.36 | –
[1], 340.18 K | – | – | 264.97 | –
[1], 340.68 K | – | – | 264.84 | –
[1], 341.18 K | – | – | 264.97 | –
[1], 341.68 K | – | – | 265.49 | –
[1], 342.18 K | – | – | 265.49 | –
[1], 342.68 K | – | – | 265.62 | –
[1], 343.18 K | – | – | 265.75 | –
[1], 343.68 K | – | – | 266.01 | –
[1], 344.18 K | – | – | 266.4 | –
[1], 344.68 K | – | – | 266.27 | –
[1], 345.18 K | – | – | 266.27 | –
[1], 345.68 K | – | – | 266.4 | –
[1], 346.18 K | – | – | 266.79 | –
[1], 346.68 K | – | – | 266.4 | –
[1], 347.18 K | – | – | 266.79 | –
[1], 347.68 K | – | – | 266.66 | –
[1], 348.18 K | – | – | 266.92 | –
[1], 348.68 K | – | – | 267.31 | –
[1], 349.18 K | – | – | 266.92 | –
[1], 349.68 K | – | – | 267.18 | –
[1], 350.18 K | – | – | 267.7 | –
[1], 350.68 K | – | – | 267.7 | –
[1], 351.18 K | – | – | 268.09 | –
[1], 351.68 K | – | – | 268.09 | –
[1], 352.18 K | – | – | 267.96 | –
[1], 352.68 K | – | – | 268.48 | –
[1], 353.18 K | – | – | 268.61 | –
[1], 353.68 K | – | – | 268.61 | –
[1], 354.18 K | – | – | 268.48 | –
[1], 354.68 K | – | – | 268.48 | –
[1], 355.18 K | – | – | 268.87 | –
[1], 355.68 K | – | – | 268.87 | –
[1], 356.18 K | – | – | 268.87 | –
[1], 356.68 K | – | – | 269.13 | –
[1], 357.18 K | – | – | 269.39 | –
[1], 357.68 K | – | – | 269.78 | –
[1], 358.18 K | – | – | 269.91 | –
[1], 358.68 K | – | – | 269.65 | –
[1], 359.18 K | – | – | 270.17 | –
[1], 359.68 K | – | – | 270.3 | –
[1], 360.18 K | – | – | 270.56 | –
[1], 360.68 K | – | – | 270.83 | –
[1], 361.18 K | – | – | 270.96 | –
[1], 361.68 K | – | – | 270.56 | –
[1], 362.18 K | – | – | 270.56 | –
[1], 362.68 K | – | – | 270.56 | –
[1], 363.18 K | – | – | 271.09 | –
[1], 363.68 K | – | – | 270.96 | –
[1], 364.18 K | – | – | 271.22 | –
[1], 364.68 K | – | – | 271.48 | –
[1], 365.18 K | – | – | 271.74 | –
[1], 365.68 K | – | – | 271.74 | –
[1], 366.18 K | – | – | 271.87 | –
[1], 366.68 K | – | – | 271.87 | –
[1], 367.18 K | – | – | 271.87 | –
[1], 367.68 K | – | – | 272.39 | –
[1], 368.18 K | – | – | 272.52 | –
[1], 368.68 K | – | – | 272.65 | –
[1], 369.18 K | – | – | 273.04 | –
[1], 369.68 K | – | – | 273.04 | –
[1], 370.18 K | – | – | 272.78 | –
[1], 370.68 K | – | – | 272.91 | –
[1], 371.18 K | – | – | 273.3 | –
[1], 371.68 K | – | – | 273.56 | –
[1], 372.18 K | – | – | 273.56 | –
[1], 372.68 K | – | – | 273.56 | –
[1], 373.18 K | – | – | 273.82 | –
[1], 373.68 K | – | – | 273.69 | –
[2], 303.15 K | – | – | – | 8e-08
[2], 313.15 K | – | – | – | 7.9e-08
[2], 323.15 K | – | – | – | 7.85e-08
[2], 333.15 K | – | – | – | 7.7e-08
[2], 343.15 K | – | – | – | 7.6e-08
[2], 353.15 K | – | – | – | 7.5e-08
[2], 363.15 K | – | – | – | 7.35e-08
[2], 373.15 K | – | – | – | 7.25e-08
[2], Resistive pulse heating | 3270 | 668 | – | –
